# Target: human GluN1/GluN2B NMDA receptors (Homo sapiens, UniProt Q05586+Q13224)
# Assay: Cell-based calcium flux (FLIPR) assay on cloned human GluN1/GluN2B ion channels expressed in mammalian cells
# Conditions: standard assay; glutamate ~EC40, 10 μM glycine; stable Tet-On cell line
# Experimental: 5.3. Biological Assays: Effect of Compounds of Formula (I) on Cloned Human GluN1/GluN2B Ion Channels Expressed in Mammalian Cells
# NMDA receptors are ion channels that are highly permeable to Ca^2+ ions, rendering it possible to monitor NMDA receptor function using cell-based calcium flux assay. In this assay, co-agonists glutamate and glycine are added to cells heterologously expressing human GluN1/GluN2B NMDA receptors to initiate cellular Ca^2+ influx. The time course of the changes in intracellular calcium is measured using a fluorescent dye and a FLIPR (Fluorometric Imaging Plate Reader) device.
# Twenty four hours before measurements, the expression of the NMDA receptors in the stable cell line is induced with Tet-On inducible system in the presence of a non-selective NMDA receptor blocker. On the day of the experiment, cell culture media is carefully washed and the cells are loaded with Calcium 5 Dye Kit (Molecular Devices) in dye loading buffer containing 137 mM NaCl, 4 mM KCl, 2 mM CaCl2, 0.5 mM MgCl2 (standard assay) or 1.5 mM MgCl2 (HTS assay), 10 mM HEPES and 5 mM D-glucose; pH 7.4. After 1 h incubation at the room temperature, the dye is washed away with the assay buffer (137 mM NaCl (standard assay) or 150 mM (HTS assay), 4 mM KCl (standard assay) or 3 mM (HTS assay), 2 mM CaCl2, 0.01 mM EDTA, 10 mM HEPES and 5 mM D-glucose; pH 7.4) In the FLIPR TETRA reader, various concentrations of the test compounds are added to the cells for 5 min while fluorescence is monitored to detect potential agonist activity. Next, co-agonists, glutamate and glycine are added for another 5 minutes. The concentration of glutamate corresponding to ˜EC40 (standard assay) or EC40 (HTS assay) is used to maximize the assay's signal window and ability to detect NMDA receptor antagonists and negative allosteric modulators. A saturating concentration (10 μM) of glycine is also present in the assay. A non-selective NMDA receptor antagonist, (+)MK-801 is used as a positive control for antagonist activity. The fluorescent signal in the presence of test compounds is quantified and normalized to the signal defined by the appropriate control wells.
# Chain of human GluN1/GluN2B NMDA receptors (Q13224 27-1484, other chains not shown): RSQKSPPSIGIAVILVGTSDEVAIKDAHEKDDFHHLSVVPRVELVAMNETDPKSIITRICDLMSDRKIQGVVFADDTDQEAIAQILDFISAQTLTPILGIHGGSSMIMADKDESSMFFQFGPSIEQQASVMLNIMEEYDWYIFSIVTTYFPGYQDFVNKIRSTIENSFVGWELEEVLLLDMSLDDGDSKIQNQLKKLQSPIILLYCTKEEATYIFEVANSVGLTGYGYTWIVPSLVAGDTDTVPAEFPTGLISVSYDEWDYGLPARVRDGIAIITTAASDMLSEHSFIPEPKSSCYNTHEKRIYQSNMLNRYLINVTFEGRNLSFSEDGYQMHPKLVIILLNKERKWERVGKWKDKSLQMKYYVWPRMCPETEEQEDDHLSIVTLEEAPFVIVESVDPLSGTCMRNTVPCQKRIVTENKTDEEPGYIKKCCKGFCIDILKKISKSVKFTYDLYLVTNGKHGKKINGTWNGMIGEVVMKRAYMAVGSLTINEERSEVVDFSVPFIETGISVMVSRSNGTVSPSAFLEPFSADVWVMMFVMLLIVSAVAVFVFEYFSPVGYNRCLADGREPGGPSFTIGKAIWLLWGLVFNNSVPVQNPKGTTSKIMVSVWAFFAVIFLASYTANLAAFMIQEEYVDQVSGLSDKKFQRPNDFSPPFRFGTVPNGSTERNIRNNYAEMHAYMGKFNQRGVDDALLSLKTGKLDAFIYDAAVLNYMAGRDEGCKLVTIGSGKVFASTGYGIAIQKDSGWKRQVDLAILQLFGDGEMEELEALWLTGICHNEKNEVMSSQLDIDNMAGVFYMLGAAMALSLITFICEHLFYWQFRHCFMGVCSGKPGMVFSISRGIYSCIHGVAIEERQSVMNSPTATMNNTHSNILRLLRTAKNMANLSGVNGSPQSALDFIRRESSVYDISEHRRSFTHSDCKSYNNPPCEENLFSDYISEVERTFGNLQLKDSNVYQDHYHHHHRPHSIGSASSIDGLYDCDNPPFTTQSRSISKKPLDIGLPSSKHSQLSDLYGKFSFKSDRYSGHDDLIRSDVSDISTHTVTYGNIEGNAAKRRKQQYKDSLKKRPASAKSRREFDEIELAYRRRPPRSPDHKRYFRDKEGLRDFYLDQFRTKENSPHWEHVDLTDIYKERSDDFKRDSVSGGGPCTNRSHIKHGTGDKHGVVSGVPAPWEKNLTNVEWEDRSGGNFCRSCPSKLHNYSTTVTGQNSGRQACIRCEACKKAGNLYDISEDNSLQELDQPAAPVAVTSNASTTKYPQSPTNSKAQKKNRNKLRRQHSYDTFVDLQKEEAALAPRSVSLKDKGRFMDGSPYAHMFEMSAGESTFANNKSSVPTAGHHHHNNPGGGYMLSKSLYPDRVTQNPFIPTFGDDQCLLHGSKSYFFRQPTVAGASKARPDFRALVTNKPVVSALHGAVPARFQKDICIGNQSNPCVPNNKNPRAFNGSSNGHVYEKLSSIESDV
row,SMILES,IC50 [nM]
1,"Cc1ncc(-c2ccc(F)cc2)cc1CN1CCCOC1=O [Example 68, 3-[[5-(4-Fluorophenyl)-2-methyl-3-pyridyl]methyl]-1,3-oxazinan-2-one]",> 3000
2,"Cc1ncc(-c2cccc(F)c2)cc1CN1CCCOC1=O [Example 69, 3-[[5-(3-Fluorophenyl)-2-methyl-3-pyridyl]methyl]-1,3-oxazinan-2-one]",3020
3,"Cc1ncc(-c2ccc(F)cc2F)cc1CN1CCCOC1=O [Example 72, 3-[[5-(2,4-Difluorophenyl)-2-methyl-3-pyridyl]methyl]-1,3-oxazinan-2-one]",2240
4,"Cc1ncc(-c2cccc(C(F)(F)F)c2)cc1CN1CCCOC1=O [Example 74, 3-[[2-Methyl-5-[3-(Trifluoromethyl)phenyl]-3-pyridyl]methyl]-1,3-oxazinan-2-one]",50
5,"Cc1ncc(-c2ccc(F)c(C(F)(F)F)c2)cc1CN1CCCOC1=O [Example 75, 3-[[5-[4-Fluoro-3-(trifluoromethyl)phenyl]-2-methyl-3-pyridyl]methyl]-1,3-oxazinan-2-one]",39
6,"Cc1ncc(-c2ccc(F)c(OC(F)F)c2)cc1CN1CC2(CC2)OC1=O [Example 84, 5-[[5-[3-(Difluoromethoxy)-4-fluoro-phenyl]-2-methyl-3-pyridyl]methyl]-7-oxa-5-azaspiro[2.4]heptan-6-one]",52
7,"Cc1ncc(-c2ccc(F)c(OC(F)F)c2)cc1CN1CC2(CCC2)OC1=O [Example 85, 6-[[5-[3-(Difluoromethoxy)-4-fluoro-phenyl]-2-methyl-3-pyridyl]methyl]-8-oxa-6-azaspiro[3.4]octan-7-one]",107
8,"Cc1ncc(-c2ccc(F)c(OC(F)F)c2)cc1CN1CC(C)(C)OC1=O [Example 87, 3-[[5-[3-(Difluoromethoxy)-4-fluoro-phenyl]-2-methyl-3-pyridyl]methyl]-5,5-dimethyl-oxazolidin-2-one]",373
9,"Cc1ncc(-c2ccc(F)c(C(F)F)c2)cc1CN1CC2(CCC2)OC1=O [Example 91, 6-[[5-[3-(Difluoromethyl)-4-fluoro-phenyl]-2-methyl-3-pyridyl]methyl]-8-oxa-6-azaspiro[3.4]octan-7-one]",84
10,"Cc1ncc(-c2ccc(F)c(C(F)F)c2)cc1CN1C[C@@H](C)OC1=O [Example 92, (5R)-3-[[5-[3-(Difluoromethyl)-4-fluoro-phenyl]-2-methyl-3-pyridyl]methyl]-5-methyl-oxazolidin-2-one]",63
11,"Cc1ncc(-c2ccc(F)c(C(F)F)c2)cc1CN1CC(C)(C)OC1=O [Example 93, 3-[[5-[3-(Difluoromethyl)-4-fluoro-phenyl]-2-methyl-3-pyridyl]methyl]-5,5-dimethyl-oxazolidin-2-one]",526
12,"Cc1ncc(-c2ccc(Cl)s2)cc1CN1CCOC1=O [Example 98, 3-[[5-(5-Chloro-2-thienyl)-2-methyl-3-pyridyl]methyl]oxazolidin-2-one]",187
13,"Cc1ncc(-c2ccc(C(F)F)s2)cc1CN1CCOC1=O [Example 100, 3-[[5-[5-(Difluoromethyl)-2-thienyl]-2-methyl-3-pyridyl]methyl]oxazolidin-2-one]",42
14,"COc1ncc(-c2cccc(C(F)(F)F)c2)cc1CN1CCOC1=O [Example 101, 3-[[2-Methoxy-5-[3-(trifluoromethyl)phenyl]-3-pyridyl]methyl]oxazolidin-2-one]",53
15,"COc1ncc(-c2cc(F)c(F)c(F)c2)cc1CN1CCOC1=O [Example 102, 3-[[2-Methoxy-5-(3,4,5-trifluorophenyl)-3-pyridyl]methyl]oxazolidin-2-one]",172
16,"COc1ncc(-c2ccc(F)c(C)c2F)cc1CN1CCOC1=O [Example 103, 3-[[5-(2,4-Difluoro-3-methyl-phenyl)-2-methoxy-3-pyridyl]methyl] oxazolidin-2-one]",46
17,"COc1ncc(-c2cc(C)cc(F)c2)cc1CN1CCOC1=O [Example 104, 3-[[5-(3-Fluoro-5-methyl-phenyl)-2-methoxy-3-pyridyl]methyl]oxazolidin-2-one]",159
18,"COc1ncc(-c2cccc(C)c2)cc1CN1CCOC1=O [Example 105, 3-[[2-Methoxy-5-(m-tolyl)-3-pyridyl]methyl]oxazolidin-2-one]",434
19,"COc1ncc(-c2cccc(Cl)c2)cc1CN1CCOC1=O [Example 109, 3-[[5-(3-Chlorophenyl)-2-methoxy-3-pyridyl]methyl]oxazolidin-2-one]",477
20,"COc1ncc(-c2ccc(F)c(C(C)(F)F)c2)cc1CN1CCOC1=O [Example 110, 3-[[5-[3-(1,1-Difluoroethyl)-4-fluoro-phenyl]-2-methoxy-3-pyridyl]methyl]oxazolidin-2-one]",37
21,"COc1ncc(-c2cccc(C(C)(F)F)c2)cc1CN1CCOC1=O [Example 111, 3-[[5-[3-(1,1-Difluoroethyl)phenyl]-2-methoxy-3-pyridyl]methyl]oxazolidin-2-one]",47

# These reach a lower IC50. Values come first.
row,IC50 [nM],SMILES
1,13,"Cc1cc(-c2cnc(C)c(CN3CCCOC3=O)c2)cc(F)c1F [Example 70, 3-[[5-(3,4-Difluoro-5-methyl-phenyl)-2-methyl-3-pyridyl]methyl]-1,3-oxazinan-2-one]"
2,22,"Cc1ncc(-c2ccc(F)c(C)c2F)cc1CN1CCCOC1=O [Example 71, 3-[[5-(2,4-Difluoro-3-methyl-phenyl)-2-methyl-3-pyridyl]methyl]-1,3-oxazinan-2-one]"
3,19,"Cc1ncc(-c2ccc(Cl)c(Cl)c2)cc1CN1CCCOC1=O [Example 73, 3-[[5-(3,4-Dichlorophenyl)-2-methyl-3-pyridyl]methyl]-1,3-oxazinan-2-one]"
4,19,"Cc1cc(-c2cnc(C)c(CN3CCOC3=O)c2)ccc1F [Example 76, 3-[[5-(4-Fluoro-3-methyl-phenyl)-2-methyl-3-pyridyl]methyl]oxazolidin-2-one]"
5,13,"Cc1ncc(-c2ccc(F)c(C)c2F)cc1CN1CCOC1=O [Example 77, 3-[[5-(2,4-Difluoro-3-methyl-phenyl)-2-methyl-3-pyridyl]methyl]oxazolidin-2-one]"
6,32,"Cc1ncc(-c2ccc(F)c(C(C)(F)F)c2)cc1CN1CCOC1=O [Example 78, 3-[[5-[3-(1,1-Difluoroethyl)-4-fluoro-phenyl]-2-methyl-3-pyridyl]methyl]oxazolidin-2-one]"
7,10,"Cc1ncc(-c2ccc(F)c(OC(F)F)c2)cc1CN1CCOC1=O [Example 79, 3-[[5-[3-(Difluoromethoxy)-4-fluoro-phenyl]-2-methyl-3-pyridyl]methyl] oxazolidin-2-one]"
8,22,"Cc1ncc(-c2ccc(F)c(OC(F)F)c2)cc1CN1CCCOC1=O [Example 88, 3-[[5-[3-(Difluoromethoxy)-4-fluoro-phenyl]-2-methyl-3-pyridyl]methyl]-1,3-oxazinan-2-one]"
9,14,"Cc1ncc(-c2ccc(Cl)c(OC(F)F)c2)cc1CN1CCOC1=O [Example 89, 3-[[5-[4-Chloro-3-(difluoromethoxy)phenyl]-2-methyl-3-pyridyl]methyl]oxazolidin-2-one]"
10,31,"Cc1ncc(-c2ccc(F)c(C(F)F)c2)cc1CN1CC2(CC2)OC1=O [Example 96, 5-[[5-[3-(Difluoromethyl)-4-fluoro-phenyl]-2-methyl-3-pyridyl]methyl]-7-oxa-5-azaspiro[2.4]heptan-6-one]"
11,16,"Cc1ncc(-c2ccc(C(F)(F)F)s2)cc1CN1CCOC1=O [Example 99, 3-[[2-Methyl-5-[5-(trifluoromethyl)-2-thienyl]-3-pyridyl]methyl]oxazolidin-2-one]"
12,33,"COc1ncc(-c2ccc(Cl)c(Cl)c2)cc1CN1CCOC1=O [Example 106, 3-[[5-(3,4-Dichlorophenyl)-2-methoxy-3-pyridyl]methyl]oxazolidin-2-one]"
13,11,"COc1ncc(-c2ccc(Cl)c(OC(F)F)c2)cc1CN1CCOC1=O [Example 107, 3-[[5-[4-Chloro-3-(difluoromethoxy)phenyl]-2-methoxy-3-pyridyl]methyl]oxazolidin-2-one]"
14,32,"COc1ncc(-c2ccc(F)c(Cl)c2)cc1CN1CCOC1=O [Example 108, 3-[[5-(3-Chloro-4-fluoro-phenyl)-2-methoxy-3-pyridyl]methyl]oxazolidin-2-one]"
15,18,"COc1ncc(-c2cc(C)c(F)c(F)c2)cc1CN1CCOC1=O [Example 112, 3-[[5-(3,4-Difluoro-5-methyl-phenyl)-2-methoxy-3-pyridyl]methyl] oxazolidin-2-one]"
16,13,"COc1ncc(-c2ccc(F)c(OC(F)(F)F)c2)cc1CN1CCOC1=O [Example 113, 3-[[5-[4-Fluoro-3-(trifluoromethoxy)phenyl]-2-methoxy-3-pyridyl]methyl]oxazolidin-2-one]"

# Source: patent US11447503B2, “Pyridine carbamates and their use as GLUN2B receptor modulators” (JANSSEN PHARMACEUTICA NV, priority 2019, dated 2022)
